Series [1] in a line: Cellular uptake in human HCT116 cell cytoplasm at 100 uM by confocal fluorescence microscopy. The settings on record: hct-116, 100 µM. It is filed as ADME, cell-based.
Series [2] in a line: Induction of nitric oxide release in potassium phosphate buffer at pH 7.35 at 100 uM photoirradiated with 15 mW/cm'2 light for 10 mins by spectrometric analysis in presence of Fe2+/MGD2 complex. It is filed as physicochemical. As to conditions: pH 7.35, 10 min.
A short description of series [3]: Induction of nitric oxide release in potassium phosphate buffer at pH 7.35 at 500 uM photoirradiated with 190 mW/cm'2 light for 15 mins by LC/ESI-MS analysis in presence of Fe2+/MGD2 complex. It is filed as physicochemical. As to conditions: pH 7.35, 0.25 h.
For series [4], the system named is HCT-116. Briefly: Induction of nitric oxide release in human HCT116 cells at 25 uM incubated for 3 hrs followed by […] irradiation by DAR-4M/AM staining-based fluorescence microscopy relative to control. It is filed as functional, cell-based.
Series [5] is described as follows: Induction of nitric oxide release in potassium phosphate buffer at pH 7.35 at 100 uM photoirradiated with 180 mW/cm'2 light for 15 mins by LC/ESI-MS analysis in presence of Fe2+/MGD2 complex. It is filed as physicochemical. As to conditions: pH 7.35, 0.25 h.

Active and inactive are the calls of the source. The calls are words filed in the database; no cut-off is given here.

Two compounds from ChEMBL document CHEMBL3352100, “Visible light-induced nitric oxide release from a novel nitrobenzene derivative cross-conjugated with a coumarin fluorophore” (Bioorg Med Chem Lett, 2014) can be followed below.

For `Cc1cc(/C=C/c2cc(=O)oc3cc(O)c(Br)cc23)cc(C)c1[N+](=O)[O-]`, in series [1], the Drug uptake result is “Active”. Besides, the outcome in series [2] and in series [3] was Active. The outcome in series [4] was Active.

Turning to `CCN(CC)c1ccc2c(C)c(/C=C/c3cc(C)c([N+](=O)[O-])c(C)c3)c(=O)oc2c1`, the Activity result in series [5] was “Not Active”.
